Test results published in a melting point compilation (Tetko et al.).

**Q.** With `CC(C)CC(C)n1nccc1N` (stereo not drawn) as the compound, how does the melting point read?
**A.** 55 to 57 °C

**Q.** Which melting point does the source give for `CCOC(=O)c1cc(C)nc2onc(C)c12` here?
**A.** 64 to 66 °C

**Q.** Which melting point does the source give for `Cc1ccc(-n2cc(C(=O)O)c(-c3ccccc3)n2)cc1` here?
**A.** 194 to 196 °C

**Q.** Which melting point does the source give for `CC(=O)NC(Cc1c[nH]cn1)C(N)=O` (stereo not drawn) here?
**A.** 241 to 243 °C

**Q.** With `O=C(Nc1ccccn1)C1CCCNC1` (stereo not drawn) as the compound, how does the melting point read?
**A.** 94 to 96 °C

**Q.** With `ON=Cc1ccncn1` as the compound, how does the melting point read?
**A.** 150 to 152 °C

**Q.** For `NC(=O)C(Cl)c1cccc(Br)c1` (stereo not drawn), which melting point is on record?
**A.** 109 to 111 °C

**Q.** With `CC(CC(=O)O)c1ccc(C(F)(F)F)cc1` (stereo not drawn) as the compound, how does the melting point read?
**A.** 88 to 90 °C

**Q.** Which melting point does the source give for `Cn1cc(C(=O)O)c(-c2ccc3c(c2)OCCCO3)n1` here?
**A.** 199 to 201 °C

**Q.** With `CCCOc1ccc(C=CC(=O)O)cc1OC` as the compound, how does the melting point read?
**A.** 187 to 189 °C

**Q.** With `NC(=O)C1CC(C(=O)O)=NN1c1ccccc1` (stereo not drawn) as the compound, how does the melting point read?
**A.** 209 to 211 °C

**Q.** For `C1CNc2nn[nH]c2C1`, which melting point is on record?
**A.** 163 to 165 °C

**Q.** For `Cc1cccc(-n2cc(C(=O)CCl)nn2)c1`, which melting point is on record?
**A.** 141 to 143 °C

**Q.** With `Cc1ccccc1-n1c(C)cc(C(=O)O)c1C` as the compound, how does the melting point read?
**A.** 127 to 129 °C

**Q.** For `O=c1c2ccccc2ncn1CCCl`, which melting point is on record?
**A.** 124 to 126 °C

**Q.** With `NC(=O)N1CCCC1CO` (stereo not drawn) as the compound, how does the melting point read?
**A.** 94 to 96 °C

**Q.** For `Cc1n[nH]c(-c2ccc(N)cc2)n1`, which melting point is on record?
**A.** 179 to 181 °C

**Q.** With `NNc1ccc(S(=O)(=O)NC2CC2)cc1` as the compound, how does the melting point read?
**A.** 134 to 136 °C

**Q.** For `Cc1ccc(C#N)c(N2CCOCC2)c1`, which melting point is on record?
**A.** 86 to 88 °C

**Q.** With `NC(=S)N1CCN(c2ccccn2)CC1` as the compound, how does the melting point read?
**A.** 164 to 166 °C

**Q.** For `NS(=O)(=O)c1cnn(CC(=O)O)c1`, which melting point is on record?
**A.** 156 to 158 °C

**Q.** With `O=Cc1cn2cc(Cl)ccc2n1` as the compound, how does the melting point read?
**A.** 183 to 185 °C

**Q.** For `Cc1nn(-c2ccc(F)cc2F)c(C)c1C=O`, which melting point is on record?
**A.** 129 to 131 °C

**Q.** With `Sc1nnc(-c2ccncc2)o1` as the compound, how does the melting point read?
**A.** 270 to 275 °C

**Q.** With `COC1CCN(C(=O)Nc2cccc(C(=O)O)c2)CC1` as the compound, how does the melting point read?
**A.** 196 to 198 °C

**Q.** With `O=C(O)c1sc(-c2ccccc2)cc1OCc1ccccc1` as the compound, how does the melting point read?
**A.** 178 to 180 °C

**Q.** Which melting point does the source give for `CC(C)(C(=O)O)c1cccs1` here?
**A.** 78 to 80 °C

**Q.** Which melting point does the source give for `Cc1nn(-c2ccccc2)c(C(F)(F)F)c1C(=O)O` here?
**A.** 146 to 148 °C

**Q.** With `CC(C(=O)O)c1ccc(S(C)(=O)=O)cc1` (stereo not drawn) as the compound, how does the melting point read?
**A.** 91 to 93 °C

**Q.** Which melting point does the source give for `CC(C)C1CCC2(CC1)NC(=O)NC2=O` (stereo not drawn) here?
**A.** 298 to 300 °C

**Q.** For `Cc1ccc(/C=C/C(=O)O)cc1Cl`, which melting point is on record?
**A.** 194 to 196 °C

**Q.** For `O=C(Nc1ccccc1)NC1CCNCC1`, which melting point is on record?
**A.** 169 to 171 °C

**Q.** With `Nc1ncc(-c2cccc(Cl)c2)s1` as the compound, how does the melting point read?
**A.** 143 to 145 °C

**Q.** With `CC(C)(C)c1cc(NC(=O)CBr)on1` as the compound, how does the melting point read?
**A.** 139 to 141 °C

**Q.** For `Nc1ccc(C(=O)CCC(=O)O)cc1`, which melting point is on record?
**A.** 184 to 186 °C

**Q.** Which melting point does the source give for `O=C(NC1(C(=O)O)CCCCC1)c1ccc(Br)cc1` here?
**A.** 238 to 240 °C

**Q.** For `Cn1c(S)nc2cc(S(N)(=O)=O)ccc21`, which melting point is on record?
**A.** 313 to 315 °C

**Q.** For `OCc1cc(I)c(CO)cc1I`, which melting point is on record?
**A.** 218 to 220 °C

**Q.** For `O=C(O)c1cccc(Oc2ccc(Cl)cc2)n1`, which melting point is on record?
**A.** 115 to 117 °C

**Q.** Which melting point does the source give for `C=CCn1c(N)c(C(=O)OCC)sc1=S` here?
**A.** 118 to 120 °C

**Q.** Which melting point does the source give for `O=C(O)Cn1ccc(=O)c2ccccc21` here?
**A.** 274 to 276 °C

**Q.** For `Nc1cc(I)ccc1Br`, which melting point is on record?
**A.** 64 to 66 °C

**Q.** With `Nc1ccc2c(c1)CCN2C(=O)c1cccnc1` as the compound, how does the melting point read?
**A.** 181 to 183 °C

**Q.** Which melting point does the source give for `CCCNc1nnc(S)s1` here?
**A.** 105 to 107 °C

**Q.** For `Nc1nnn(Cc2ccccc2)n1`, which melting point is on record?
**A.** 183 to 185 °C

**Q.** Which melting point does the source give for `NNC(=O)c1cc(-c2ccc(Cl)cc2)nc2ccccc12` here?
**A.** 238 to 240 °C

**Q.** With `COc1ccc(-c2nc(C(=O)O)cs2)cc1` as the compound, how does the melting point read?
**A.** 172 to 174 °C

**Q.** With `CN(CC(=O)O)S(=O)(=O)C=Cc1ccccc1` as the compound, how does the melting point read?
**A.** 150 to 152 °C

**Q.** Which melting point does the source give for `Brc1ccc2c(c1)c1cc(Br)ccc1n2CC1CO1` (stereo not drawn) here?
**A.** 142 to 144 °C

**Q.** With `OCc1cc(-c2ccccc2)[nH]n1` as the compound, how does the melting point read?
**A.** 144 to 146 °C

**Q.** For `CNC(=O)COc1ccc(O)cc1`, which melting point is on record?
**A.** 125 to 127 °C

**Q.** For `CC1CC(C)(C)CC2(C1)NC(=O)NC2=O` (stereo not drawn), which melting point is on record?
**A.** 273 to 275 °C

**Q.** With `C[C@H](N)C(N)=O` as the compound, how does the melting point read?
**A.** 67 to 69 °C

**Q.** With `Cc1n[nH]c(C)c1SCC(=O)O` as the compound, how does the melting point read?
**A.** 153 to 155 °C

**Q.** For `NCC1CC(=O)Nc2ccccc21` (stereo not drawn), which melting point is on record?
**A.** 142 to 144 °C

**Q.** For `Nc1nc(C(F)(F)F)c[nH]1`, which melting point is on record?
**A.** 121 to 123 °C

**Q.** Which melting point does the source give for `N#CCC(=O)NCc1ccccc1` here?
**A.** 125 to 127 °C

**Q.** With `NC(=S)Cc1nc2ccccc2s1` as the compound, how does the melting point read?
**A.** 173 to 175 °C

**Q.** For `N#CC1(C(=O)O)CCOCC1`, which melting point is on record?
**A.** 162 to 164 °C

**Q.** For `O=Cc1cccc2c1OCO2`, which melting point is on record?
**A.** 34 to 36 °C

**Q.** With `Cc1nn(-c2ccc(F)cc2)nc1C(=O)O` as the compound, how does the melting point read?
**A.** 167 to 169 °C

**Q.** With `CN(C)c1ccc(C(=O)O)cn1` as the compound, how does the melting point read?
**A.** 225 to 227 °C

**Q.** For `NS(=O)(=O)CCCCl`, which melting point is on record?
**A.** 63 to 65 °C

**Q.** With `N#Cc1ccc(-n2cnc3ccccc32)cc1` as the compound, how does the melting point read?
**A.** 135 to 137 °C

**Q.** Which melting point does the source give for `Nc1cccc(-c2nc(C3CC3)n[nH]2)c1` here?
**A.** 154 to 156 °C

**Q.** For `NC(=NO)C1CCCCCC1`, which melting point is on record?
**A.** 87 to 89 °C

**Q.** With `O=C(O)C1CCN(S(=O)(=O)c2cc([N+](=O)[O-])ccc2Cl)CC1` as the compound, how does the melting point read?
**A.** 42 to 44 °C

**Q.** With `N#Cc1nc2ccccc2cc1Br` as the compound, how does the melting point read?
**A.** 139 to 141 °C

**Q.** Which melting point does the source give for `O=C(O)C(Sc1ccc(F)c(Cl)c1)c1ccccc1` (stereo not drawn) here?
**A.** 74 to 76 °C

**Q.** With `CC(O)C1CCCNC1` (stereo not drawn) as the compound, how does the melting point read?
**A.** 52 to 54 °C

**Q.** For `Nc1nccn2ccnc12`, which melting point is on record?
**A.** 212 to 214 °C

**Q.** With `NNC(=O)c1cc(-c2ccccc2)on1` as the compound, how does the melting point read?
**A.** 125 to 127 °C

**Q.** Which melting point does the source give for `Cc1occc1-c1cc(N)n(CCO)n1` here?
**A.** 128 to 130 °C
